In publication PMC10338474 (Nature Communications, 2023):
“And” between values parts separate entries of the source, which are not always exact repeats. Equal entries are not always repeated. “Also recorded” adds a separate entry of the source. Where two headings read alike, the source gives them in different places.

Columns and labels:
EPAC1^FL [1] = target: T1, EPAC1^FL (Homo sapiens, UniProt O95398); test: Nucleotide exchange kinetics assay (BODIPY-GDP dissociation from Rap1) with full-length EPAC1; type: biochemical; details: for increase in affinity, PM liposomes vs solution: ratio of apparent KD
T1 construct: Human full-length EPAC1 (EPAC1^FL) was cloned into a pET28a vector (6xHis tag in N-terminus); made in house; host or cells: E. coli BL21 (DE3) pG-KJE8
T1 sequence (O95398 1-881 isoform O95398-3): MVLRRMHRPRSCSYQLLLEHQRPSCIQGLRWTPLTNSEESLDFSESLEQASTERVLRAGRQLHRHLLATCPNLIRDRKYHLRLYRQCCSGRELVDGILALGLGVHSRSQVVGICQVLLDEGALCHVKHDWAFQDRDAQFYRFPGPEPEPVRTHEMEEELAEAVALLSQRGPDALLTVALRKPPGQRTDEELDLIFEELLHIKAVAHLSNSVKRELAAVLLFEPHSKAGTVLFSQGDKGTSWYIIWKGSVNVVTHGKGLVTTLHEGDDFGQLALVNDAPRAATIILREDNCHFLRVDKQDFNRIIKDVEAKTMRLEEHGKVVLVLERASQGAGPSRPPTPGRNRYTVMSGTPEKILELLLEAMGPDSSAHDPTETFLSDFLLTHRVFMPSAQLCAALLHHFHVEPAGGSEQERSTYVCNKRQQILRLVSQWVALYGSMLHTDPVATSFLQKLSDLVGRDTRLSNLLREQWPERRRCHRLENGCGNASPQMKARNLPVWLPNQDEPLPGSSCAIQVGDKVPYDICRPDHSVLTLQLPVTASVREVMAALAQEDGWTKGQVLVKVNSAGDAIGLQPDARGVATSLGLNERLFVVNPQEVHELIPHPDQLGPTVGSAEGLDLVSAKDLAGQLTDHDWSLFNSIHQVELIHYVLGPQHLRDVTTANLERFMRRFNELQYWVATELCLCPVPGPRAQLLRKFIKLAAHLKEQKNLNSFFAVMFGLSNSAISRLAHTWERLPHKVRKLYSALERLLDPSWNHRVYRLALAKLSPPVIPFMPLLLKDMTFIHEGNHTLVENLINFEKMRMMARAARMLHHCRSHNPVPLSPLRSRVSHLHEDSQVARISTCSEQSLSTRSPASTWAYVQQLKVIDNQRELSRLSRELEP
Procedure: Liposomes were added at 100 μM (total lipids).
Nonlinear regression based on a straight line model was performed with GraphPad Prism. EPAC1 pseudo first order catalytic efficiencies kcat/KM were deduced from the slopes of the curves, according to the Michaelis–Menten formalism. […] Nonlinear regression based on a sigmoidal model was performed with GraphPad Prism. KD and kmax were deduced from the EC50 and top values of the curves, respectively.

EPAC1^CNB-GEF = EPAC1^CNB-GEF (Homo sapiens, UniProt O95398); details: in solution; Supplementary Fig. 4d
Procedure: For kinetics assays, the Rap1 GTPase was loaded with BODIPY-FL-GDP (Jena Bioscience) prior to nucleotide exchange by incubating 50 μM Rap1 with 250 μM BODIPY-GDP and 10 mM EDTA for 30 min at room temperature. Nucleotide exchange was stopped by the addition of 75 mM MgCl2. Removal of excess nucleotides and buffer exchange were done on a PD SpinTrap G-25 (GE HealthCare Life Science). Nucleotide exchange kinetics were monitored by following the decay of BODIPY-GDP fluorescence upon replacement by GTP, using excitation and emission wavelengths of 485 and 530 nm, respectively. Measurements were carried out at 30 °C on a Cary Eclipse fluorimeter (Varian) under stirring in 800 μL cuvettes, or in microplate wells (150 μL) on a FLEXstation (Molecular Devices). […] Liposomes were added at 100 μM (total lipids). For kinetics in solution, kobs values were determined from a mono-exponential fit. […] In this case, kobs values corresponding to the fast component were used.

EPAC1^FL [2] = target: T1, EPAC1^FL; test: Liposome flotation binding assay of EPAC1^FL
EPAC1^α-CNB-GEF [3] = target: EPAC1^α-CNB-GEF (Homo sapiens, UniProt O95398); details: for Dmax (largest protein dimension): EPAC1^α-CNB-GEF with the single ligand (cAMP 1 mM/200 μM or CE3F4 100 μM racemic mix)
Procedure: All small angle X-ray scattering (SAXS) data were obtained from size exclusion chromatography-SAXS (SEC-SAXS) experiments on the SWING beamline (SOLEIL synchrotron, France), using the EPAC1^α-CNB-GEF construct. EPAC1 was used at a concentration of 60 μM to obtain high SAXS intensities. Samples were injected on high-performance liquid chromatography (HPLC) size exclusion column (BioSEC-3 300 Å, Agilent Technologies, Inc.) equilibrated with the elution buffer (20 mM Tris-HCl pH 8.0, 150 mM NaCl, 0.5 mM EDTA). […] Data reduction to absolute units, frame averaging, and subtraction were done using the FOXTROT program suite (SOLEIL synchrotron). Frames corresponding to the high-intensity fractions of the peak and having a constant radius of gyration (Rg) within error were averaged. […] Rg values were evaluated by Guinier Wizard using the data within the range of Guinier approximation sRg < 1.3 and by Distance Distribution Wizard, both of which are modules of the PRIMUS program. The maximum distance Dmax was estimated with PRIMUS and refined by trial and error with GNOM. The distance distribution functions were calculated with GNOM. SAXS profiles were compared with DATCMP (ATSAS suite).

[4] = target: Rap1/EPAC1^α-CNB-GEF complex (Homo sapiens, UniProt O95398); details: cAMP 1 mM, EDTA, DMSO
Procedure: EPAC1^α-CNB-GEF was used at 25 μM in all experiments. […] Proteins samples were injected into a 25 mL Superdex 200 gel filtration column (GE Healthcare) at 0.5 mL/min. Fractions were analyzed by SDS-PAGE.

[5] = target: CNB domain-containing EPAC1 constructs (Homo sapiens, UniProt O95398); details: Supplementary Fig. 2c
EPAC1 = details: cited from earlier work
[6] = test system: Rap1 GTPase in cardiomyocytes; set-up: method as in PMID 23139415; details: cited from earlier work
arrhythmia in mice = details: cited from earlier work
arrhythmia in rats = details: cited from earlier work
EPAC1^GEF = EPAC1^GEF (Homo sapiens, UniProt O95398); details: cited from earlier work
[7] = test system: isolated CNB domain of EPAC1; details: NMR; without competing with cAMP; cited from earlier work
EPAC1^α-CNB-GEF [8] = details: cited from earlier work

In the case of `Nc1ncnc2c1ncn2[C@@H]1O[C@@H]2COP(=O)(O)O[C@H]2[C@H]1O` [cAMP, cyclic adenosine monophosphate], the “increase in affinity, PM liposomes vs solution” value (EPAC1^FL [1]) is reported as 278 fold, the “effect of cAMP on intrinsic GEF activity of EPAC1^CNB-GEF” value (EPAC1^CNB-GEF) is reported as “increased” and the “effect of addition of cAMP on EPAC1^FL binding to PS-PIP2 liposomes with cholesterol” value (EPAC1^FL [2]; flotation assay, 1 mM cAMP) is reported as “no discernible effect”. The “Dmax (largest protein dimension)” value (EPAC1^α-CNB-GEF [3]) was 130 Å, the “Rg, Guinier analysis” value (EPAC1^α-CNB-GEF [3]; single ligand) was 34.91 Å and the “Rg, P(r) analysis” value (EPAC1^α-CNB-GEF [3]; single ligand) was 35.53 Å. For the same molecule, the “formation of the Rap1-EPAC1^α-CNB-GEF complex” value [4] was “readily observed”, the “effect of cAMP on binding of CNB domain-containing EPAC1 constructs to PM liposomes” value [5] was “does not increase” and the EC50 (EPAC1; read-out: half-maximal activation of EPAC1) was […].
With `CC1CCc2c(cc(Br)c(F)c2Br)N1C=O` (stereo not shown) [CE3F4] the “Binding (%) of EPAC1^FL to PM liposomes, DMSO set to 100%” value (EPAC1^FL [2]; Fig. 4f left, without cAMP, CE3F4 50 μM) was 81%, the “Rg, Guinier analysis” value (EPAC1^α-CNB-GEF [3]; +cAMP +CE3F4) was 33.41 Å and the “Rg, P(r) analysis” value (EPAC1^α-CNB-GEF [3]; +cAMP +CE3F4) was 33.84 Å. The “Dmax (largest protein dimension)” value (EPAC1^α-CNB-GEF [3]) was 114 Å, the “Rg, Guinier analysis” value (EPAC1^α-CNB-GEF [3]; single ligand) was 32.58 Å and the “Rg, P(r) analysis” value (EPAC1^α-CNB-GEF [3]; single ligand) was 32.86 Å. For the same molecule, the “activation of the Rap1 GTPase in cardiomyocytes” value [6] was “efficiently inhibits”, the arrhythmia (arrhythmia in mice) was “prevents” and the arrhythmia (arrhythmia in rats) was “prevents”. For the same molecule, the “inhibition of the GEF domain of EPAC1 alone” value (EPAC1^GEF) was “does not inhibit”, the “binding to the isolated CNB domain” value [7] was “binds” and the “in vitro activation of Rap1 by EPAC1^α-CNB-GEF” value (EPAC1^α-CNB-GEF [8]) was “inhibits”.
For `CO[C@@H]1[C@@H]2OP(=O)(O)OC[C@H]2O[C@H]1n1c(Sc2ccc(Cl)cc2)nc2c(N)ncnc21` [compound 007, 8-(4-chlorophenylthio)−2’-O-methyl-cAMP], the “increase of kmax, PM liposomes vs solution” value (EPAC1^FL [1]) was 12.3 fold and 12 fold, the Kd (EPAC1^FL [1]; in solution, Supplementary Table 5 mean) was 1.57 µM and the “increase in affinity, PM liposomes vs solution” value (EPAC1^FL [1]) was 107 fold. For the same molecule, the “maximal activity (kmax) compared to cAMP” value (EPAC1; in solution, in vitro) was “threefold; also recorded: three times higher”.
